Reference: publication PMC4060991, “The Human Orphan Nuclear Receptor Tailless (TLX, NR2E1) Is Druggable” (PLoS ONE, 2014)

molecular target: TLX LBD (Homo sapiens, UniProt Q9Y466); test: Differential scanning fluorimetry (DSF) on purified TLX LBD;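 further: thermal unfolding followed by Sypro-Orange fluorescence (excitation 465 nm, emission 610 nm) in 384-well plates, Tm taken from the first derivative of the denaturation curve, duplicate samples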; format: binding; parameters: cDNA fragments encoding human TLX LBD (a.a. 187–385) were cloned; His6 followed by TEV protease cleavage site (N); made in house; host or cells: E. coli BL21 (DE3) star; settings: compound 500 µM
Sequence (Q9Y466 187-385): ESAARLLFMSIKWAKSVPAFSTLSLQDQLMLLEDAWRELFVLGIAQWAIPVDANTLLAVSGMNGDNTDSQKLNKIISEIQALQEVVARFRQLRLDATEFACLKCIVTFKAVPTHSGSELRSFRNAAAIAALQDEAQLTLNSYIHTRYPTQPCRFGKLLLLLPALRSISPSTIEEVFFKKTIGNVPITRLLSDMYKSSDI
Description: Protein stability was assessed with DSF in absence or presence of test compounds in a LightCycler 480 II qRT-PCR Detection System (Roche) in 384-well format. Sypro-Orange dye (Life Technologies) was used to monitor fluorescence, with filters for fluorescence excitation at 465 nm and for fluorescence emission at 610 nm. […] Each compound was tested in duplicates. The melting temperature (Tm) for each sample was deduced by the ThermoQ Analytical software (HMRI) from the first derivative of the corresponding denaturation curve generated by the LightCycler 480 software. […] All DSF-based analyses were performed using freshly purified protein.

Molecule	hit in DSF screen (able to bind TLX LBD, Tm shift 0.9°C or more), Table S1
Cc1cc(N)c2ccccc2[n+]1CCCCCCCCCC[n+]1c(C)cc(N)c2ccccc21.[Cl-].[Cl-] [1-[10-(4-amino-2-methylquinolin-1-ium-1-yl)decyl]-2-methylquinolin-1-ium-4-amine chloride]	Hits from DSF
Cc1ccc(NC(=O)c2ccc(CN3CCN(C)CC3)cc2)cc1Nc1nc(-c2cccnc2)cs1 [Masitinib]	Hits from DSF
COc1cccc2cc(-c3nc([C@H]4CC[C@H](C(=O)O)CC4)n4ncnc(N)c34)[nH]c12 [OSI-027]	Hits from DSF
CN(C)c1ccc(C=CC(=O)[O-])cc1.CN(C)c1ccc(C=CC(=O)[O-])cc1.[Cu+2] [copper 3-(4-dimethylaminophenyl)prop-2-enoate]	Hits from DSF
N#CCNC(=O)c1ccc(-c2ccnc(Nc3ccc(N4CCOCC4)cc3)n2)cc1 [CYT387]	Hits from DSF
Cc1cc(C(C)Nc2ccccc2)c2nc(N3CCOCC3)cc(=O)n2c1 (stereo not shown) [TGX-221]	Hits from DSF
CCP(CC)CC.[Au+].[Cl-] [Chlorogold; Triethylphosphane]	Hits from DSF
COc1cc2c(cc1O)CC[C@@H]1[C@@H]2CC[C@]2(C)[C@@H](O)CC[C@@H]12 [2-Methoxyestradiol]	Hits from DSF
O=NN(CCCl)C(=O)NCc1ccc[n+]([O-])c1 [1-(2-chloroethyl)-1-nitroso-3-[(1-oxidopyridin-1-ium-3-yl)methyl]urea]	Hits from DSF
COC1CC(CC2CCC(C)C(C(C)C(=O)O)O2)OC2(OC(C)(C3CCC(C)(C4OC(C5OC(O)(CO)C(C)CC5C)CC4C)O3)CC2C)C1C (stereo not shown) [2-[6-[[2-[5-[5-[6-hydroxy-6-(hydroxymethyl)-3,5-dimethyloxan-2-yl]-3-methyloxolan-2-yl]-5-methyloxolan-2-yl]-9-methoxy-2,4,10-trimethyl-1,6-dioxaspiro[4.5]decan-7-yl]methyl]-3-methyloxan-2-yl]propanoic acid]	Hits from DSF
O=C([O][Hg][CH2]C1COC([CH2][Hg][O]C(=O)c2ccccc2)CO1)c1ccccc1 (stereo not shown) [benzoyloxy-[[5-(benzoyloxymercuriomethyl)-1,4-dioxan-2-yl]methyl]mercury]	Hits from DSF
CCC[CH2][Pb]([Cl])([CH2]CCC)[CH2]CCC [Tributyl(chloro)plumbane]	Hits from DSF
Kauroic acid	Hits from DSF
CC(C)(C)OC(=O)N[C@H]1CCCCC/C=C\[C@@H]2C[C@@]2(C(=O)NS(=O)(=O)C2CC2)NC(=O)[C@@H]2C[C@@H](OC(=O)N3Cc4cccc(F)c4C3)CN2C1=O [Danoprevir]	Hits from DSF
O=C(O)c1ccc(NC(c2ccccc2)c2ccc3cccnc3c2O)cc1 (stereo not shown) [4-[[(8-hydroxyquinolin-7-yl)-phenylmethyl]amino]benzoic acid]	Hits from DSF

molecular target: ERβ LBD (Homo sapiens, UniProt Q92731); test: DSF on purified ERβ LBD; settings: compound 500 µM; unliganded Tm ∼51°C
Sequence (Q92731 261-530): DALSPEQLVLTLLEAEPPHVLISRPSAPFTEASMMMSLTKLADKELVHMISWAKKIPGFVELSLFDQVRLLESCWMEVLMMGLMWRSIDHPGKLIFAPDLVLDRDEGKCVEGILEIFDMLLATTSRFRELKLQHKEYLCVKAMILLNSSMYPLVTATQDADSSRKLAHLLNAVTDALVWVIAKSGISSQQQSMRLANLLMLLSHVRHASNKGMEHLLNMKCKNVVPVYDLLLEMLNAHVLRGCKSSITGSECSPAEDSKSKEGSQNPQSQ
Description: Protein stability was assessed with DSF in absence or presence of test compounds in a LightCycler 480 II qRT-PCR Detection System (Roche) in 384-well format. Sypro-Orange dye (Life Technologies) was used to monitor fluorescence, with filters for fluorescence excitation at 465 nm and for fluorescence emission at 610 nm. […] Tested sample mixtures were heated from 25°C to 96°C at a rate of 0.05°C/sec with 11 acquisitions per °C. Each compound was tested in duplicates. The melting temperature (Tm) for each sample was deduced by the ThermoQ Analytical software (HMRI) from the first derivative of the corresponding denaturation curve generated by the LightCycler 480 software. The same protocol was applied to investigate the stability of purified ERβ and LXRβ LBDs in presence or absence of the compounds. The optimal final concentrations for these experiments were 0.02 mg/mL for ERβ LBD and 0.20 mg/mL for LXRβ LBD. All DSF-based analyses were performed using freshly purified protein.

Molecule	melting temperature shift of ERβ LBD
C[C@]12CC[C@@H]3c4ccc(O)cc4CC[C@H]3[C@@H]1CC[C@@H]2O [E2, estradiol]	shifted upward
